Results taken from patent publication US20050282743A1, “Molecular interactions in cells” (Arbor Vita Corporation, priority 2001, published 2005).
Like-named read-outs stand apart in the source and are kept apart here. Ends that are not written are not given here. Peptide text beside a SMILES is read from it. * marks the point of attachment. Biotin = O=C1N[C@H]2[C@H](CS[C@H]2CCCCC(=O)*)N1

Key:
Format in all cases: binding
[1] = target: T1, NeDLG (PDZ Domain 1, 2) (Homo sapiens, UniProt Q92796); assay: G' assay, TABLE 12; conditions: A450 nm class of biotinylated PL peptide bound; 0 in conc columns = peptide 10 uM, protein 5 ug/ml
T1 construct: When more than one PDZ domain was cloned, the DNA portion cloned represents the PDZ domains and the cDNA portion located between individual domains; made in house; host or cells: E. coli (DH5alpha, BL21 or JM109)
T1 sequence (Q92796 129-315 limits assumed): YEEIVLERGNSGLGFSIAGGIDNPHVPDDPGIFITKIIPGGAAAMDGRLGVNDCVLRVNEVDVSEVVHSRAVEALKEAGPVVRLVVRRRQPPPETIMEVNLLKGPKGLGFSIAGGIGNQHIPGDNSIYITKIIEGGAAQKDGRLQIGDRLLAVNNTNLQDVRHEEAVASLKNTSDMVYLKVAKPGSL
Method in brief: (§1)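 PL peptide binding to PDZ domain protein, peptide at 10 uM; protein at 5 ug/ml unless another concentration is listed for Kd determination. Bound peptide read at A450 nm and binned into classes 0–5.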

[2] = target: T2, PSD95 (PDZ Domain 1, 2, 3) (Homo sapiens, UniProt P78352); assay: G' assay, TABLE 12; conditions: A450 nm class of biotinylated PL peptide bound; 0 in conc columns = peptide 10 uM, protein 5 ug/ml
T2 construct: When more than one PDZ domain was cloned, the DNA portion cloned represents the PDZ domains and the cDNA portion located between individual domains; made in house; host or cells: E. coli (DH5alpha, BL21 or JM109)
T2 sequence (P78352 58-398 limits assumed): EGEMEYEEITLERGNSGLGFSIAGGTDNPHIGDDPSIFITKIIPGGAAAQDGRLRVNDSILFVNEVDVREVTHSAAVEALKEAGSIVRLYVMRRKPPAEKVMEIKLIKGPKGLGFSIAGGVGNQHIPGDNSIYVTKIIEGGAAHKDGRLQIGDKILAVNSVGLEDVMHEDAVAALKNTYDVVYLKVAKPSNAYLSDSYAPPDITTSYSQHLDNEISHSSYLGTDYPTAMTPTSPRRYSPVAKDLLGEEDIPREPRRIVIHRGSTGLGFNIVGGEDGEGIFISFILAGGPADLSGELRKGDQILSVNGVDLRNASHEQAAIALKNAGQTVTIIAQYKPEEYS
Method in brief: as §1

[3] = target: T3, KIAA807 (Homo sapiens, UniProt Q6P0Q8); assay: G' assay, TABLE 12; conditions: A450 nm class of biotinylated PL peptide bound; 0 in conc columns = peptide 10 uM, protein 5 ug/ml
T3 construct: made in house; host or cells: E. coli (DH5alpha, BL21 or JM109)
T3 sequence (Q6P0Q8 1104-1192 limits assumed): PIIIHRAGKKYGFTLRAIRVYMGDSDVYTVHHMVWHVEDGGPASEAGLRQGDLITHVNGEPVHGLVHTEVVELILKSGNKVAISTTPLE
Method in brief: as §1

[4] = target: T4, PDZ-domain polypeptide (GST/PDZ fusion protein) (Homo sapiens, UniProt Q86UL8); assay: Apparent affinity (Kd) by titration of PL peptide in the G assay; conditions: PDZ atrophin-1 interacting Protein
T4 construct: made in house; host or cells: E. coli (DH5alpha, BL21 or JM109)
T4 sequence (Q86UL8 whole entry, the tested form may be a part): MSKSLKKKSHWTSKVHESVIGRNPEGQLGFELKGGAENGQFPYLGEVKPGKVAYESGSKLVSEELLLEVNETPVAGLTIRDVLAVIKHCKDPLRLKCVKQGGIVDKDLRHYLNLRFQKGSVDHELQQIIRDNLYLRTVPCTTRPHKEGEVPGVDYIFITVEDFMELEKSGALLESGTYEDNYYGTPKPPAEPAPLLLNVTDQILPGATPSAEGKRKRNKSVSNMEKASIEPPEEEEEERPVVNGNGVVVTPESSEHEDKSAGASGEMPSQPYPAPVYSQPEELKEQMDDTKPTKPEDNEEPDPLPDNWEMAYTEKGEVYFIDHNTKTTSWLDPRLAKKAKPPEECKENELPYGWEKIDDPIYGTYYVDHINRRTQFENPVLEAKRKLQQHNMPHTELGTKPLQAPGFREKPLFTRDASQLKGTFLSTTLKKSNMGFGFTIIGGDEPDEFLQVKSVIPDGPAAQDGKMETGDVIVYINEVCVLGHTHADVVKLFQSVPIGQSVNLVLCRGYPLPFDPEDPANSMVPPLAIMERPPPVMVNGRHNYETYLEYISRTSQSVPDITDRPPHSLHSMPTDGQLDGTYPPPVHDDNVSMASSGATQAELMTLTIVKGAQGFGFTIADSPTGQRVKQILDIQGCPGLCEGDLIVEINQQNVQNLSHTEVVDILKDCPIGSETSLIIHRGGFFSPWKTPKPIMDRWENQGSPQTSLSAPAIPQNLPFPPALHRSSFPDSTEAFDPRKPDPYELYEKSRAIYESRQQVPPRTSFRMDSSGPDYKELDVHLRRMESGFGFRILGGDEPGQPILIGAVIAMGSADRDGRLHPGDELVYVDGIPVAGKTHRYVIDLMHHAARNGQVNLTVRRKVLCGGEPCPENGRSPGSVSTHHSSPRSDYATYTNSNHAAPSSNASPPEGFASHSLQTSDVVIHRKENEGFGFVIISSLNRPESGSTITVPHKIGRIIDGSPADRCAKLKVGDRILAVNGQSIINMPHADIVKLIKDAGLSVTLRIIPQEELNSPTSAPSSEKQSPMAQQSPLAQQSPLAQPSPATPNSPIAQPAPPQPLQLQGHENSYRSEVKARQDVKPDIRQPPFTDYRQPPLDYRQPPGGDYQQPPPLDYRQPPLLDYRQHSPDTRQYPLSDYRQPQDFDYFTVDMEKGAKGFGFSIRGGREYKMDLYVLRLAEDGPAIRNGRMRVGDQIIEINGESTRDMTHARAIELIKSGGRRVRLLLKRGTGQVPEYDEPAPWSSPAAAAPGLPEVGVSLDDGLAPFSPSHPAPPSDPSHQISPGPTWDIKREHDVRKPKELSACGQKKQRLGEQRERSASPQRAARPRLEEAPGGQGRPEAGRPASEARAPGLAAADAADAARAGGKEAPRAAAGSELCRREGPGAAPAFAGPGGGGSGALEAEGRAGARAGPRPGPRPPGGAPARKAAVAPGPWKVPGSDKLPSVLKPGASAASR
Method in brief: (§2)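 A fixed concentration of GST/PDZ fusion protein, 5 ug/ml by default, was mixed in solution with increasing labeled PL peptide (e.g. 0.1 uM-1 mM). Reaction times ranged from 10 minutes to 2 days at 4-37° C. Complexes were separated from free peptide and detected via the label as in the G assay, apparent affinity coming from the saturating concentration.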

[5] = target: T5, PDZ-domain polypeptide (GST/PDZ fusion protein) (Homo sapiens, UniProt Q6P0Q8); assay: as above
T5 construct: made in house; host or cells: E. coli (DH5alpha, BL21 or JM109)
T5 sequence (Q6P0Q8 whole entry, the tested form may be a part): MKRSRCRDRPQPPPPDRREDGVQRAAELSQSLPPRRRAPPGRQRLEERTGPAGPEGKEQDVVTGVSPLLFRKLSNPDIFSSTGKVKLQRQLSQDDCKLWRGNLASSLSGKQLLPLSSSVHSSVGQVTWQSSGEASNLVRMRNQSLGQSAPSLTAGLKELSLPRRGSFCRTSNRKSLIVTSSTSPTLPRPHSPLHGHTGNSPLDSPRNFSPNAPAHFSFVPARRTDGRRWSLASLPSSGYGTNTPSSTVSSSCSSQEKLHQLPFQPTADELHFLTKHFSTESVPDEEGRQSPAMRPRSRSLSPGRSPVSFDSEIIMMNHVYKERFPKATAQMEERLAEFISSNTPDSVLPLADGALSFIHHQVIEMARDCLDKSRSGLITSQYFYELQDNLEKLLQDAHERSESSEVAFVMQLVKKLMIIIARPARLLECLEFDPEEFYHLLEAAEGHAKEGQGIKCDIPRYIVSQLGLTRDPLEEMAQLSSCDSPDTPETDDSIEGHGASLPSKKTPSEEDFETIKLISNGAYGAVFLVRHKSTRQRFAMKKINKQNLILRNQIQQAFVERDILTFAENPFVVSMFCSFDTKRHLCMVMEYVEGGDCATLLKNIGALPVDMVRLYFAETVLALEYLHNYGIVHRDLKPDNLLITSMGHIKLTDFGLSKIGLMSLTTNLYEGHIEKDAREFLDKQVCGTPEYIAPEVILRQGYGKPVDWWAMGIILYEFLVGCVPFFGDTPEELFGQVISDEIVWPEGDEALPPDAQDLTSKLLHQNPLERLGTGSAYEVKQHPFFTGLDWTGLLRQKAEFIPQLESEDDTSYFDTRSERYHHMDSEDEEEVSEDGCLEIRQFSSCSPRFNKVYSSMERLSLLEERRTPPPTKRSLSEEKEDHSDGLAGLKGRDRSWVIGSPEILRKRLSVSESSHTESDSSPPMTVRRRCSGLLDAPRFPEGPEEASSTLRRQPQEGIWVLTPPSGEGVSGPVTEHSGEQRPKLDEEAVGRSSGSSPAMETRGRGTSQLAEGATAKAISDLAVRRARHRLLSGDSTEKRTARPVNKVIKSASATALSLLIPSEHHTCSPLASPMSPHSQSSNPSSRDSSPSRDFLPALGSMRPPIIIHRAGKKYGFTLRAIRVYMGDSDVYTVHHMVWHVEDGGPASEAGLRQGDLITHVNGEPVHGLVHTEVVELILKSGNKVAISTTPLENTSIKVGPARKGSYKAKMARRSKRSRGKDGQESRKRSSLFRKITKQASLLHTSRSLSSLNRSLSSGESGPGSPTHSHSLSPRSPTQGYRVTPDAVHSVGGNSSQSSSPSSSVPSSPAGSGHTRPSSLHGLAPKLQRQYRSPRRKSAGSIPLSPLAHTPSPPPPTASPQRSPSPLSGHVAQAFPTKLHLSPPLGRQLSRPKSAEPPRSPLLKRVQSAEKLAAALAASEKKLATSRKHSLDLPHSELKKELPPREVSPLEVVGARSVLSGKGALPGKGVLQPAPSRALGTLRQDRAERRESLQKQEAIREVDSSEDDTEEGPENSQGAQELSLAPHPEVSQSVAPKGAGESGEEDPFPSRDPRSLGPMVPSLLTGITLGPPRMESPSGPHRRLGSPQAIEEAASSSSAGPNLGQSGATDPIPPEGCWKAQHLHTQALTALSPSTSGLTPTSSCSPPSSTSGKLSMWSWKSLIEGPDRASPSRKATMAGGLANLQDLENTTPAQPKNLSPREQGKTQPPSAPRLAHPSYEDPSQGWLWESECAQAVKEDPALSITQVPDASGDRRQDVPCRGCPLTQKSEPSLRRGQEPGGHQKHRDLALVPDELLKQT
Method in brief: as §2

[6] = PDZ KIAA0807(S), PDZ Domain 1, read-out: Peptide Optimal Conc (Kd by titration of the PL peptide)

Molecule | Classification [1] | Classification [2] | Classification [3] | other results
CC[C@H](C)[C@H](NC(=O)[C@H](CCC(=O)O)NC(=O)[C@H](CC(N)=O)NC(=O)[C@H](CCCNC(=N)N)NC(=O)[C@H](Cc1ccccc1)NC(=O)[C@H](CC(N)=O)NC(=O)[C@H](CO)NC(=O)[C@H](CC(N)=O)NC(=O)[C@H](CCC(=O)O)NC(=O)[C@H](CO)NC(=O)[C@H](CC(=O)O)NC(=O)[C@H](CO)NC(=O)[C@@H](NC(=O)[C@@H](NC(=O)[C@H](CC(=O)O)NC(=O)[C@H](CCCCN)NC(=O)CCCC[C@@H]1SC[C@@H]2NC(=O)N[C@@H]21)[C@@H](C)CC)[C@@H](C)O)C(=O)N[C@@H](CCC(N)=O)C(=O)N[C@@H](CO)C(=O)N[C@@H](CC(C)C)C(=O)N[C@H](C(=O)O)C(C)C [CD95] (Biotin-KDITSDSENSNFRNEIQSLV-OH; C-terminus assumed) | 1 (A450 nm 0-1) | 1 (A450 nm 0-1) | – | –
CC[C@H](C)[C@H](NC(=O)[C@H](CO)NC(=O)[C@H](CCC(=O)O)NC(=O)[C@H](Cc1ccc(O)cc1)NC(=O)[C@H](CC(=O)O)NC(=O)[C@H](CC(N)=O)NC(=O)[C@H](CCC(=O)O)NC(=O)[C@H](CCCCN)NC(=O)CCCC[C@@H]1SC[C@@H]2NC(=O)N[C@@H]21)C(=O)N[C@@H](CO)C(=O)N[C@@H](CC(=O)O)C(=O)N[C@@H](CC(C)C)C(=O)N[C@@H](CCC(N)=O)C(=O)N[C@@H](CCC(N)=O)C(=O)NCC(=O)N[C@@H](CCCNC(=N)N)C(=O)N[C@@H](CC(=O)O)C(=O)N[C@H](C(=O)N[C@H](C(=O)N[C@@H](CCCNC(=N)N)C(=O)N[C@@H](CC(C)C)C(=O)O)[C@@H](C)O)[C@@H](C)CC [PAG] (Biotin-KENDYESISDLQQGRDITRL-OH; C-terminus assumed) | – | – | 5 (A450 nm of 4 more than 2× repeated) | –
LASKSAEEGKQIPDSLSTDL (Biotin-LASKSAEEGKQIPDSLSTDL) [Dock2] | – | – | 5 (A450 nm of 4 more than 2× repeated) | –
CC[C@H](C)[C@H](NC(=O)[C@H](CC(=O)O)NC(=O)[C@H](CCC(=O)O)NC(=O)[C@H](CCCNC(=N)N)NC(=O)[C@@H](NC(=O)CCCC[C@@H]1SC[C@@H]2NC(=O)N[C@@H]21)[C@@H](C)O)C(=O)N[C@@H](Cc1ccc(O)cc1)C(=O)N[C@H](C(=O)N[C@@H](CC(N)=O)C(=O)N[C@@H](Cc1ccc(O)cc1)C(=O)N1CCC[C@H]1C(=O)N[C@H](C(=O)N[C@@H](Cc1ccccc1)C(=O)N[C@@H](CO)C(=O)N[C@@H](CCCNC(=N)N)C(=O)N[C@@H](CCCNC(=N)N)C(=O)N1CCC[C@H]1C(=O)N[C@@H](CCCCN)C(=O)N[C@H](C(=O)N[C@@H](CCCNC(=N)N)C(=O)N[C@H](C(=O)O)C(C)C)[C@@H](C)O)[C@@H](C)O)C(C)C [DNAM-1] (Biotin-TREDIYVNYPTFSRRPKTRV-OH; C-terminus assumed) | 2 (A450 nm 1-2) | 2 (A450 nm 1-2) | – | Kd ([4]; Peptide Optimal Conc (Kd by titration of the PL peptide), PDZ Domain 1): 3000 nM; Kd ([5]; Peptide Optimal Conc (Kd by titration of the PL peptide), PDZ KIAA807): 2000 nM; Kd ([5]; Peptide Optimal Conc (Kd by titration of the PL peptide), PDZ KIAA0807(S), PDZ Domain 1): 2000 nM
CC(C)C[C@H](NC(=O)CNC(=O)[C@@H](NC(=O)[C@H](CO)NC(=O)[C@H](CC(N)=O)NC(=O)[C@H](Cc1ccccc1)NC(=O)CNC(=O)[C@H](C)NC(=O)[C@H](C)NC(=O)[C@H](Cc1ccccc1)NC(=O)[C@@H](NC(=O)CCCC[C@@H]1SC[C@@H]2NC(=O)N[C@@H]21)[C@@H](C)O)[C@@H](C)O)C(=O)N1CCC[C@H]1C(=O)N[C@@H](Cc1c[nH]cn1)C(=O)N[C@@H](CO)C(=O)N[C@H](C(=O)N[C@H](C(=O)N[C@@H](CCCNC(=N)N)C(=O)N[C@H](C(=O)O)C(C)C)[C@@H](C)O)[C@@H](C)O [Neuroligin] (Biotin-TFAAGFNSTGLPHSTTRV-OH; C-terminus assumed) | – | – | – | Kd ([4]; PDZ Domain 1, read-out: Peptide Optimal Conc (Kd by titration of the PL peptide)): 250 nM
ARHRVTSYTSSSVNVSSNL (Biotin-ARHRVTSYTSSSVNVSSNL) [IL-8RB] | – | 1 (A450 nm 0-1) | – | –
CC[C@H](C)[C@H](NC(=O)[C@H](CCC(N)=O)NC(=O)[C@@H](NC(=O)[C@H](Cc1c[nH]cn1)NC(=O)[C@H](CCC(N)=O)NC(=O)[C@H](CC(=O)O)NC(=O)[C@H](CCC(=O)O)NC(=O)[C@H](CC(=O)O)NC(=O)[C@H](Cc1ccccc1)NC(=O)[C@@H]1CCCN1C(=O)[C@H](CCC(=O)O)NC(=O)[C@H](CC(N)=O)NC(=O)[C@H](CCC(=O)O)NC(=O)[C@@H]1CCCN1C(=O)[C@H](CC(=O)O)NC(=O)[C@H](CO)NC(=O)[C@H](CC(=O)O)NC(=O)CCCC[C@@H]1SC[C@@H]2NC(=O)N[C@@H]21)[C@@H](C)O)C(=O)N[C@H](C(=O)N[C@@H](CCCCN)C(=O)N[C@H](C(=O)O)C(C)C)[C@@H](C)O [PTEN] | – | – | – | Kd [5, 6]: 300 nM
CC(C)C[C@H](NC(=O)[C@H](Cc1c[nH]c2ccccc12)NC(=O)[C@H](Cc1c[nH]cn1)NC(=O)[C@H](CCCNC(=N)N)NC(=O)[C@H](CC(C)C)NC(=O)[C@@H](NC(=O)[C@H](Cc1ccccc1)NC(=O)[C@H](CCC(N)=O)NC(=O)[C@H](CCCNC(=N)N)NC(=O)[C@@H](NC(=O)[C@H](CCC(=O)O)NC(=O)CNC(=O)[C@H](CCCNC(=N)N)NC(=O)[C@H](CC(=O)O)NC(=O)[C@@H](NC(=O)[C@H](CC(C)C)NC(=O)[C@H](CCC(=O)O)NC(=O)[C@H](CCCNC(=N)N)NC(=O)CCCC[C@@H]1SC[C@@H]2NC(=O)N[C@@H]21)C(C)C)C(C)C)[C@@H](C)O)C(=O)N[C@@H](CCCCN)C(=O)N[C@H](C(=O)O)C(C)C [Dopamine transporter (Na+-dependent)] (Biotin-RELVDRGEVRQFTLRHWLKV-OH; C-terminus assumed) | – | – | – | Kd [5, 6]: 400 nM; Kd ([5]; PDZ KIAA807, read-out: Peptide Optimal Conc (Kd by titration of the PL peptide)): 400 nM
ISGTPTSTMVHGMTSSSSVV (Biotin-ISGTPTSTMVHGMTSSSSVV) [Clasp-2] | 2 (A450 nm 1-2) | 2 (A450 nm 1-2) | – | –
CSCC[C@H](NC(=O)[C@H](C)NC(=O)[C@H](CCCNC(=N)N)NC(=O)CNC(=O)[C@@H](NC(=O)[C@H](Cc1c[nH]c2ccccc12)NC(=O)[C@H](CCCNC(=N)N)NC(=O)CNC(=O)CCCC[C@@H]1SC[C@@H]2NC(=O)N[C@@H]21)[C@@H](C)O)C(=O)N[C@@H](CO)C(=O)N[C@@H](C)C(=O)N[C@@H](Cc1c[nH]c2ccccc12)C(=O)N[C@@H](CCCCN)C(=O)N1CCC[C@H]1C(=O)N[C@H](C(=O)N[C@@H](CCCNC(=N)N)C(=O)N[C@@H](CCCNC(=N)N)C(=O)N[C@@H](CCC(=O)O)C(=O)N[C@H](C(=O)N[C@@H](CCC(=O)O)C(=O)N[C@H](C(=O)O)C(C)C)[C@@H](C)O)[C@@H](C)O [HPV E6 #35 (modified)] (Biotin-GRWTGRAMSAWKPTRRETEV-OH; C-terminus assumed) | – | – | – | Kd ([4]; PDZ Domain 2, read-out: Peptide Optimal Conc (Kd by titration of the PL peptide)): 800 nM; Kd ([5]; PDZ KIAA0807(S), PDZ Domain 1, Protein Optimal Conc 0.5, read-out: Peptide Optimal Conc (Kd by titration of the PL peptide)): 100 nM
QATSRNGHSARQHVVADTEL (Biotin-QATSRNGHSARQHVVADTEL) [CD34] | – | – | 5 (A450 nm of 4 more than 2× repeated) | –
CC[C@H](C)[C@H](NC(=O)[C@H](CCC(N)=O)NC(=O)CCCC[C@@H]1SC[C@@H]2NC(=O)N[C@@H]21)C(=O)N[C@@H](CO)C(=O)N1CCC[C@H]1C(=O)NCC(=O)NCC(=O)N[C@@H](CC(C)C)C(=O)N[C@@H](CCC(=O)O)C(=O)N1CCC[C@H]1C(=O)N1CCC[C@H]1C(=O)N[C@@H](CO)C(=O)N[C@@H](CCC(=O)O)C(=O)N[C@@H](CCCCN)C(=O)N[C@@H](Cc1c[nH]cn1)C(=O)N[C@@H](Cc1ccccc1)C(=O)N[C@@H](CCCNC(=N)N)C(=O)N[C@@H](CCC(=O)O)C(=O)N[C@H](C(=O)N[C@@H](CCC(=O)O)C(=O)N[C@H](C(=O)O)C(C)C)[C@@H](C)O [Tax] | 5 (A450 nm of 4 more than 2× repeated) | 5 (A450 nm of 4 more than 2× repeated) | 5 (A450 nm of 4 more than 2× repeated) | –
